The record followed here is US20050119283A1, “Treatment of circadian rhythm disorders with NPY Y5 receptor antagonist” (Pfizer Inc, priority 2003, published 2005).

“And” between values parts separate entries of the source, which are not always exact repeats. Identical values can stand only once.

The subject of test [1] is hamster wheel running activity. Briefly: Light-induced phase advances of hamster wheel running activity (in vivo). The following applies: for Phase shift: mean ± S.E.M. From the text:
The in vivo experimental design included recording a behavioral overt rhythm such as running-wheel activity and exposing the animals to an amount of light that is known to produce a phase advance in this pattern of activity. The term “running-wheel activity”, as used herein, is defined as physical activity measured as revolutions of a wheel permanently positioned in the animals' cages and rotated as the animals run in them. The onset of such behavior is a well regarded marker of timing in circadian rhythms. Application of NPY through a cannula aimed directly into the SCN blocks the ability of light to produce a phase advance; NPY Y5 antagonists of formula IIa block these effects of NPY. Furthermore, when given in the absence of NPY, NPY Y5 antagonists of formula IIa enhance the ability of light to produce phase advances.
Surgery. For in vivo treatment, hamsters (80-100 g) were deeply anesthetized with nembutal (80 mg/kg, i.p.), administered an analgesic (buprenorphine, 0.05 mg/kg, s.c.) and mounted in a stereotaxic instrument in order to rigidly fix the skull. They were surgically implanted with a 25 gauge stainless steel guide cannula aimed at the SCN. After a week of recovery under LD 14:10 (14 hours of light, 10 hours of dark), animals were individually transferred to cages (48×27×20 cm) equipped with wheels. Wheel running activity was recorded with ClockLab hardware and software (Actimetrics, Evanston, Ill.).
Drugs and routes of administration. Animals were briefly anesthetized in order to minimize the stress induced by restraint during cannula injections with a mixture of oxygen and isoflurane administered by means of a gas anesthesia machine (2.5% isoflurane to induce anesthesia, 1.5% to maintain anesthesia through a nose-mask). NPY (0.2 μL, 234 μM) was dissolved in ACSF and administered through a cannula with a 1 μL Hamilton syringe connected with polyethylene tubing to a 13.1 mm stainless steel injector cannula (30 gauge). NPY Y5 receptor antagonist (0.6 ml, 10 mg/kg) was dissolved in 32% 2-hydroxypropyl-B-cyclodextrin, and injected s.c. 30 minutes before NPY and/or light stimulation. Light pulses (5 min, 150 lux) were delivered individually by placing animals under two white fluorescent tubes (Phillips, model F30T12); the timing of the light pulses was selected to be in the animals' dark period, 3.5 hours before lights would normally come on.
Animals were allowed at least 10 days under LD (14 hours of light, 10 hours of dark) in order to establish a stable rhythm, and then housed under constant dim red light (DRL) provided by a safelight lamp (Coastar, Inc. <1 lux). Two sets of experiments comprising five treatments were delivered in a counterbalanced design: NPY alone, NPY+light; light alone, light+NPY Y5 antagonist, NPY+NPY Y5 antagonist+light. After two treatments (only one of them involving light stimulation), animals were resynchronized to the previous LD cycle for 7-10 days, and then exposed again to dim red light for the second set of treatments.
Data analysis. For in vivo experiments, data were automatically collected and analyzed with Clocklab software bundle (ActiMetrics Software, Evanston, Ill.). Two investigators blind to the treatment analyzed phase advance magnitudes. Statistical analyses were performed by means of ANOVA followed by Student-Newman-Keul's test.
Phase advances (h) were calculated as the difference in the onset of running behavior in animals kept in dim red light relative to those exposed to combination of light and/or drug treatments. Means±S.E.M. for N=7-12. • a. Light alone experiment in which the animals are exposed to light 3 hours before the scheduled beginning of the animals' period of normal light. There is a resulting phase advance of 1.33 hours. • b. Formula IIa+light experiment in which the animals are pretreated with NPY Y5 antagonist of formula IIa and then exposed to light 3 hours before the scheduled beginning of the animals' period of normal light. […]

Test [2] concerns neuronal firing in hamster SCN slices. Briefly: NMDA-induced phase advances of neuronal firing in hamster SCN slices maintained in vitro. The note with it: for Phase shift: mean ± S.E.M.; for reversal of the effect of NPY on NMDA-induced phase advances, % of the NMDA alone experiment: antagonist 10 μM with NMDA 100 μM + NPY 2 ng/ml, in vitro. It is filed as cell-based. The procedure:
Brain slices containing the SCN were taken on a nominally “preparatory day”. During the subsequent night, at 3-3.5 hours before the scheduled onset of light, drugs were administered to the bath. Neuronal recordings were made beginning early the next day, nominally the “experimental day”, and continued until the peak firing rate could be established. A shift in this peak to an earlier point in time is referred to as a “phase advance”.
Phase advances were measured in vitro by sampling spontaneous activity from neurons in a brain slice preparation of the suprachiasmatic nucleus, herein abbreviated SCN, that is known to contain the circadian clock. The term “brain slice preparation”, as used herein, is defined as a cut section of brain that is placed in a plastic chamber and kept fully functioning by providing it with ACSF (artificial cerebrospinal fluid) that has been warmed and infused with oxygen. Recordings of the spontaneous activity of neurons in the SCN brain slice preparation follow a 24-hour pattern of activity that marks the circadian rhythm. Following application of N-methyl-D-aspartate (NMDA), a compound that mediates the phase advances elicited by light in vivo, neurons in the SCN shift their pattern of firing in vitro to reflect a phase advance. Application of NPY blocks the phase advances elicited by NMDA; NPY Y5 antagonists of formula Ia and IIa block these effects of NPY.
Animals and tissue preparation. Male golden hamsters (LVG, Charles River, 40-60 days old) were housed under a light:dark schedule of 14 hours of constant light and 10 hours of constant dark, with food and water available ad libitum. Hamsters were administered an overdose of halothane anesthesia and decapitated during the subjective day. Hypothalamic slices (500 μm) containing the suprachiasmatic nucleus (SCN) were placed in a gas-fluid interface slice chamber (Medical Systems BSC with Haas top), continuously bathed (1 ml/min) in artificial cerebrospinal fluid (ACSF) containing 125.2 mM NaCl, 3.8 mM KCl, 1.2 mM KH2PO4, 1.8 mM CaCl2, 1 mM MgSO4, 24.8 mM NaHCO3, 10 mM glucose. ACSF (pH 7.4) was supplemented with an antibiotic (gentamicin, 50 mg/l) and a fungicide (amphotericin, 2 mg/l) and maintained at 34.5° C. Warm, humidified 95% oxygen:5% carbon dioxide was continuously provided to the slice preparation.
Electrophysiological studies. Extracellular single unit activity of SCN cells was detected with glass micropipette electrodes filled with ACSF, advanced through the slice using a hydraulic microdrive. The signal was further amplified and filtered, and was continuously monitored by an oscilloscope and audio monitor. Firing rate was analyzed using data acquisition software and a customized program for calculation of descriptive statistics. The term “firing rate”, as used herein, is defined as the rate at which the neurons produce an action potential during the period of recording and is indicative of their level of functioning. Firing rates in the range of 1 to 10 Hz are typical for SCN neurons. A number of experiments in each condition were recorded “blind” where the person recording data had no knowledge of the treatment. One slice was recorded from each animal. A total number of 42 slices was recorded.
Data analysis. Data were initially grouped into 1 h bins and an analysis of variance test was used to determine if any bins differed from the others. If the analysis of variance test indicated significant differences, data were smoothed using 1 h running means with a 15-minute lag. The time of the middle of the 1 h bin with the highest mean firing rate after processing by this smoother was taken as the time of peak firing rate for that slice. Phase advances of individual slices were measured relative to the average time of peak firing of control slices. Significant differences between groups (p<0.05) were determined by ANOVA followed by Bonferroni method (for all vs control comparisons). Means are reported±standard error. […]

Setting [3] is: Formula IIa 10 mg/kg s.c. + NPY via cannula + light.
The mark [4] stands for this setting: substance + light pulse, Formula IIa 10 mg/kg s.c. 30 minutes prior to light, NPY 0.2 μL via cannula.
Setting [5] is: substance alone, no light, Formula IIa 10 mg/kg s.c., NPY 0.2 μL via cannula to SCN, N=7-12.
Setting [6] is: NMDA 100 μM + NPY 2 ng/ml + antagonist 10 μM, 60 minute bath application.
[7] abbreviates: substance alone, bath application 3.5 hours before scheduled light, NPY 2 ng/ml, NMDA 100 μM, antagonist 10 μM 60 min, N=2-6.

On to `O=C1OC2(CCN(c3nc4cc(C(F)(F)F)ccc4[nH]3)CC2)c2ccccc21` [Formula IIa], for which the “enhancement of the light-induced phase advance, % of the light alone experiment” value in test [1] (Formula IIa 10 mg/kg s.c. 30 minutes prior to light, absence of NPY) is given as 160%. The “reversal of the effects of NPY on light-induced phase advances, % of the light alone experiment” value was “about 90%” in test [1] (setting [3]) and 89% in test [1] (Formula IIa 10 mg/kg s.c. + NPY via cannula + light, listed as formula IIa). The “Phase shift” value in test [1] (setting [3]) was 1.18 ± 0.27 h; in test [1] (Formula IIa 10 mg/kg s.c. + NPY via cannula, no light) it was -0.20 ± 0.07 h; in test [1] (setting [4]) it was 2.11 ± 0.16 h; in test [1] (setting [5]), -0.12 ± 0.04 h; in test [2] (setting [6]), 2.73 ± 0.16 h; in test [2] (setting [7]), 0.07 ± 0.07 h. Moreover, the “effect on the phase of wheel running activity” value is reported as “no effect” in test [1] (formula IIa 10 mg/kg s.c. + NPY, no light) and “no effect” in test [1] (substance alone, no light). Moreover, the “reversal of the effect of NPY on NMDA-induced phase advances, % of the NMDA alone experiment” value in test [2] is on record as “about 95%”; in test [2] (listed as formula IIa), 95%. For the same compound, the “effect on the phase of neuronal firing compared to the control experiment” value (shortened to “effect … compared to the control experiment”) in test [2] (substance alone) is listed as “no effect”.

For the compound `O=C1OC2(CCN(C(=O)Nc3ccc(C(F)(F)F)cn3)CC2)c2ccccc21` [Formula Ia], the entries for the “Phase shift” value in test [2] (setting [6]) and in test [2] (setting [7]) were 2.03 ± 0.88 h and 0.32 ± 0.35 h, respectively. Besides, the “reversal of the effect of NPY on NMDA-induced phase advances, % of the NMDA alone experiment” value in test [2] is “about 70%”; in test [2] (listed as formula Ia), 70%. Further, in test [2] (substance alone), the “effect … compared to the control experiment” value is “no effect”.

As for `CN[C@H](CC(=O)O)C(=O)O` [NMDA, N-methyl-D-aspartate, reference compound], the “Phase shift” value in test [2] (setting [7]) is 2.89 h and 2.89 ± 0.08 h.

“Neuropeptide Y [NPY, reference compound]”: the “blockade of the phase advance compared to the light alone experiment” value in test [1] (NPY via cannula + light) is reported as “complete blockade”. The “Phase shift” value in test [1] (setting [4]) is -0.03 ± 0.20 h; in test [1] (setting [5]), -0.04 ± 0.11 h; in test [2] (NMDA 100 μM + NPY 2 ng/ml), -0.07 ± 0.09 h; in test [2] (setting [7]), -0.18 ± 0.17 h. In test [1] (substance alone, no light), the “effect on the phase of wheel running activity” value was “no effect”. Moreover, the “blockade of the NMDA-induced phase advance by NPY” value in test [2] (NMDA 100 μM + NPY 2 ng/ml) is “complete blockade”. Further, the “effect … compared to the control experiment” value in test [2] (substance alone) is recorded as “no effect”.
